Experimental data as given in patent US10730851B2, “Polymorph of triaryldimethylpiperazine dihydrochloride and preparation method and application thereof” (priority 2016, dated 2020).
Where a name gives a salt, the structure may show the parent alone. Read-outs that look alike come from different tables or passages of the source.

Legend:
[1] = Dynamic solubility test in water, SGF, FeSSIF, FaSSIF; type: physicochemical; conditions: for pH in clear solution: dihydrochloride
Experimental: The dynamic solubility of a free base, polymorph forms B, P, F, J and O in water or a biological medium such as Stimulated Gastric Fluid (SGF), Fed State Simulated Intestinal Fluid (FeSSIF) or Fasted State Simulated Intestinal Fluid (FaSSIF) is determined.
0.2 g sodium chloride and 0.1 g Triton X-100 is weighed and placed into a 100 mL volumetric flask. Purified water is added to dissolve. A stir is performed until the solid is completely dissolved. About 135 μL concentrated hydrochloric acid solution (37%, […]) is added, then the pH is adjusted to 1.8 with […] hydrochloric acid or 1 mmoL/L sodium hydroxide. Finally, the volume is fixed with purified water to obtain Stimulated Gastric Fluid (SGF) for later use.
Each of 0.41 mL glacial acetic acid, 0.20 g sodium hydroxide and 0.59 g sodium chloride is weighed and placed to a 50 mL volumetric flask. About 48 mL purified water is added to dissolve, the pH is adjusted to 5.0 with 1 mmoL/L hydrochloric acid or 1 mmoL/L sodium hydroxide, and the volume is fixed with purified water. Then 0.56 g of Simulated Intestinal Fluid powder (SIF powder for short, which is composed of […] with a molar ratio of 4:1) is added, stirred and ultrasonically dissolved to obtain Fed State Simulated Intestinal Fluid (FeSSIF) for later use.
Each of 0.17 g of anhydrous sodium dihydrogen phosphate (NaH2PO4), 0.021 g of sodium hydroxide and 0.31 g of sodium chloride is weighed and placed into a 50 mL volumetric flask. About 48 mL of purified water is added to dissolve, the pH is adjusted to 6.5 with 1 mmoL/L hydrochloric acid or 1 mmoL/L sodium hydroxide, and the volume is fixed with purified water. 0.11 g of SIF powder is added, stirred and ultrasonically dissolved to obtain Fasted State Simulated Intestinal Fluid (FaSSIF) for later use.
Each 30 mg of the free base, and polymorph forms B, P, F, J and O are weighed. 3 mL of purified water, Stimulated Gastric Fluid (SGF), Fed State Simulated Intestinal Fluid (FeSSIF) or Fasted State Simulated Intestinal Fluid (FaSSIF)) is added and oscillated at room temperature. 0.6 mL of suspension is taken each time at a set time point, filtered and separated with a 0.45 μm nylon filter membrane, then XRPD characterization is performed on the solid sample, and the concentration in the clear solution is measured by HPLC.

SPF-grade SD rats = assay: Forced swimming test; type: in vivo; conditions: rats; dihydrochloride
Experimental: Forced swimming test is used to test the antidepressant effects of polymorph forms P, F, O, B and J.
the swimming test equipment is a transparent glass round cylinder with a height of 46 cm and an inner diameter of 20 cm, the test water temperature is 23° C.˜25° C., the test water depth is 30 cm, and each cylinder is used only once.
300 mg of a polymorph form P is weighed with an electronic balance, and the polymorph form P is dissolved with 0.9% normal saline, and finally the volume is fixed to 100 mL with 0.9% normal saline, at this time, the concentration of dihydrochloride in the experimental reagent is 3 mg/mL for later use.
600 mg of a polymorph form P is weighed with an electronic balance, and the polymorph form P is dissolved with 0.9% normal saline, and finally the volume is fixed to 100 mL with 0.9% normal saline, at this time, the concentration of dihydrochloride in the experimental reagent is 6 mg/mL for later use.
400 mg of desipramine (DMI) is weighed with an electronic balance, DMI is dissolved with 0.9% normal saline, and then the volume is fixed to 100 mL with 0.9% normal saline for later use.
Forty SPF-grade SD rats are prepared and randomly divided into 4 groups, namely vehicle control group, positive control group, experimental group 1 and experimental group 2, with 10 rats in each group. The day before the test, the rats were placed in water for 15 min to pre-swim for 15 min in advance to adapt to the swimming test environment, then taken out and dried, placed in the cage under an infrared lamp for 15 min and then placed in the original cage. After 24 h, a formal swimming test is conducted, that is, the rats are put into water again after 24 h, and the rats are continuously observed for 5 min. The swimming process are needed to be photographed. The drug is administered during two swimming sessions.
The positive control group containing DMI is administered three times, at 23.5 h, 5 h and 1 h before the formal swimming test respectively. Vehicle control group, experimental group 1 and experimental group 2 are each administered only once and subcutaneously within 1 h.
The behaviors of the rats are scored by the scorer every 5 seconds after recording the experiment.
1) Static—when the rat floats on the water surface without struggling and moves only to keep its head above the water surface, the rat is evaluated as static;
2) Swimming—if the rats have obvious swimming behaviors, not only to keep their heads above the water surface, or to travel around in a round cylinder, they are evaluated as swimming;
3) Wall climbing—the rats' front paws have obvious behavior of entering and leaving the water surface, usually, rats are evaluated as wall climbing in front of the round cylinder wall.
All behavioral are scored by a single person. To avoid bias of observation, the scorer only observed and scored without knowing the administration situations. Then multiple test fragments are randomly selected, and the scorer will score the second round to determine the accuracy of observation. The test video is scored again by the second scorer to determine the accuracy between scorers. The second scorer are also required to observe without knowing the drug administration. Finally, in order to determine the effectiveness of the method, the first scorer scored again and recorded the duration of various behaviors with a stopwatch.
SPSSwin11.0 software is used for variance analysis. One-way variance analysis is used for homogeneity of variance, and Dunnett test is used for heterogeneity of variance.

Structure (SMILES) | solubility compared with the free base [1] | pH in clear solution ([1]; FaSSIF, Time 1) | pH in clear solution ([1]; FaSSIF, Time 2) | pH in clear solution ([1]; FaSSIF, Time 4) | pH in clear solution ([1]; FaSSIF, Time 24) | pH in clear solution ([1]; FeSSIF, Time 1) | pH in clear solution ([1]; FeSSIF, Time 2) | pH in clear solution ([1]; FeSSIF, Time 4) | pH in clear solution ([1]; FeSSIF, Time 24) | pH in clear solution ([1]; SGF, Time 1) | pH in clear solution ([1]; SGF, Time 2) | pH in clear solution ([1]; SGF, Time 4) | pH in clear solution ([1]; SGF, Time 24) | pH in clear solution ([1]; Water, Time 1) | pH in clear solution ([1]; Water, Time 2) | pH in clear solution ([1]; Water, Time 4) | pH in clear solution ([1]; Water, Time 24) | solubility compared with the free base ([1]; pH 1.8) | antidepressant effect in forced swimming test (in words) (SPF-grade SD rats) | Crystal form of insoluble solid sample [1] | also measured
CC1CCN(C(=O)c2ccc([C@H](c3cccc(O)c3)N3C[C@@H](C)N(Cc4cccc(F)c4)C[C@@H]3C)cc2)CC1 [Polymorph form B, (4-((R)-((2S,5R)-4-(3-fluorobenzyl)-(2,5-dimethylpiperazine-1-yl)(3-hydroxyphenyl)methyl)phenyl)(4-methylpiperidine-1-yl)methanone dihydrochloride] | significantly improved | 2.5 | 2.6 | 2.5 | 2.3 | 4.8 | 4.8 | 4.8 | 4.6 | 1.5 | 1.5 | 1.5 | 1.5 | 1.8 | 1.8 | 1.8 | 1.7 | close to or slightly improved | effectively reduce the static times and duration of forced swimming in rats |  | 
CC1CCN(C(=O)c2ccc([C@H](c3cccc(O)c3)N3C[C@@H](C)N(Cc4cccc(F)c4)C[C@@H]3C)cc2)CC1 [Polymorph form F, (4-((R)-((2S,5R)-4-(3-fluorobenzyl)-(2,5-dimethylpiperazine-1-yl)(3-hydroxyphenyl)methyl)phenyl)(4-methylpiperidine-1-yl)methanone dihydrochloride] | significantly improved | 3.5 | 4.6 | 4.2 | 4.5 | 4.8 | 4.9 | 4.9 | 4.9 | 1.6 | 1.6 | 1.6 | 1.4 | 1.8 | 1.9 | 1.8 | 1.5 | close to or slightly improved | effectively reduce the static times and duration of forced swimming in rats |  | Crystal form of insoluble solid sample ([1]; pH 1.8): invariability; Crystal form of insoluble solid sample ([1]; pH 5): invariability; Crystal form of insoluble solid sample ([1]; pH 6.5): invariability
CC1CCN(C(=O)c2ccc([C@H](c3cccc(O)c3)N3C[C@@H](C)N(Cc4cccc(F)c4)C[C@@H]3C)cc2)CC1 [Polymorph form J, (4-((R)-((2S,5R)-4-(3-fluorobenzyl)-(2,5-dimethylpiperazine-1-yl)(3-hydroxyphenyl)methyl)phenyl)(4-methylpiperidine-1-yl)methanone dihydrochloride] | significantly improved | 2.8 | 3.0 | 2.8 | 2.6 | 4.8 | 5.0 | 4.9 | 4.7 | 1.7 | 1.5 | 1.5 | 1.6 | 1.8 | 1.7 | 1.7 | 1.4 | close to or slightly improved | effectively reduce the static times and duration of forced swimming in rats | amorphism | 
CC1CCN(C(=O)c2ccc([C@H](c3cccc(O)c3)N3C[C@@H](C)N(Cc4cccc(F)c4)C[C@@H]3C)cc2)CC1 [Polymorph form O, (4-((R)-((2S,5R)-4-(3-fluorobenzyl)-(2,5-dimethylpiperazine-1-yl)(3-hydroxyphenyl)methyl)phenyl)(4-methylpiperidine-1-yl)methanone dihydrochloride] | significantly improved | 2.2 | 2.0 | 2.4 | 2.2 | 5.0 | 4.8 | 5.0 | 5.2 | 1.5 | 1.6 | 1.6 | 1.7 | 1.9 | 1.8 | 1.9 | 1.4 | close to or slightly improved | effectively reduce the static times and duration of forced swimming in rats | invariability | Solubility [1]: 6200 µg/mL
